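Method: 48-hour compound exposure of cells in 96-well plates, five concentrations, linear interpolation of endpoints. GI50 is the concentration that inhibits growth by half.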 Calls of active or inactive are those of the source. Rule as the data show it: active = GI50 up to about 1.1 µM and inactive = higher.
Tests used:
Experiment in all cases: inhibition of tumour cell growth, NCI panel, 48 h
IGROV-1 = system: IGROV-1
M14 = system: M14
SF-268 = system: SF-268
U-251 = system: U-251
SW-620 = system: SW-620
HOP-62 = system: HOP-62
SF-295 = system: SF-295
KM12 = system: KM12
SNB-19 = system: SNB-19
NCI-H460 = system: NCI-H460
RXF 393 = system: RXF 393
RPMI-8226 = system: RPMI-8226
SN12C = system: SN12C
UACC-257 = system: UACC-257
SK-MEL-2 = system: SK-MEL-2
OVCAR-4 = system: OVCAR-4
HT-29 = system: HT-29

Measured: GI50

CCCCCCCCCCCCCCCCNc1cccc2ccccc12
inactive: IGROV-1 > 100 µM | M14 > 100 µM | SF-268 > 100 µM | U-251 > 100 µM | SW-620 > 100 µM | HOP-62 > 100 µM | SF-295 > 100 µM | KM12 > 100 µM | SNB-19 > 100 µM | NCI-H460 > 100 µM | RXF 393 > 100 µM | RPMI-8226 > 100 µM | SN12C > 100 µM | UACC-257 > 100 µM

CSc1ccc(/C=C2\CN(C)C/C(=C\c3ccc(SC)cc3)C2=O)cc1
inactive: IGROV-1 32.6 µM | M14 92.3 µM | SF-268 29.2 µM | U-251 4.65 µM | SW-620 23 µM | HOP-62 > 100 µM | SF-295 21.1 µM | SK-MEL-2 39.4 µM | KM12 8.75 µM | NCI-H460 29.2 µM | OVCAR-4 > 100 µM | RXF 393 22 µM | RPMI-8226 2.52 µM | SN12C 23.3 µM | UACC-257 31.7 µM | HT-29 15.2 µM

Fc1ccc(/N=C2C=C/C(=N\c3ccc(F)cc3)c3ccccc3\2)cc1
inactive: IGROV-1 > 100 µM | M14 > 100 µM | SF-268 40.2 µM | U-251 > 100 µM | SW-620 > 100 µM | HOP-62 31.4 µM | SF-295 51.4 µM | SK-MEL-2 > 100 µM | SNB-19 70.5 µM | NCI-H460 93.1 µM | RXF 393 92.3 µM | RPMI-8226 > 100 µM | SN12C > 100 µM | UACC-257 > 100 µM | HT-29 > 100 µM

c1ccc2c(c1)[nH]c1c2nc2ncccn21
inactive: IGROV-1 > 100 µM | M14 > 100 µM | SF-268 > 100 µM | U-251 > 100 µM | SW-620 > 100 µM | HOP-62 > 100 µM | SF-295 > 100 µM | SK-MEL-2 > 100 µM | KM12 > 100 µM | SNB-19 > 100 µM | NCI-H460 > 100 µM | OVCAR-4 > 100 µM | RXF 393 > 100 µM | SN12C > 100 µM | UACC-257 > 100 µM | HT-29 > 100 µM

CC(=O)N/C(=C\c1ccc(/C=C(\NC(C)=O)c2nc3cc(Cl)ccc3[nH]2)cc1)c1nc2ccccc2[nH]1
inactive: IGROV-1 > 100 µM | M14 > 100 µM | SF-268 > 100 µM | U-251 > 100 µM | SW-620 > 100 µM | HOP-62 > 100 µM | SK-MEL-2 > 100 µM | KM12 > 100 µM | SNB-19 > 100 µM | NCI-H460 > 100 µM | RPMI-8226 > 100 µM | SN12C > 100 µM | HT-29 > 100 µM

Cc1cc(O)c(C=O)c(C)c1CCC1(C)C=Cc2cc(O)ccc2O1 (stereo unspecified)
inactive: IGROV-1 26.2 µM | M14 17.5 µM | SF-268 30.3 µM | U-251 21.4 µM | SW-620 20.9 µM | HOP-62 20 µM | SF-295 23.4 µM | SK-MEL-2 24.1 µM | KM12 31.3 µM | SNB-19 38.9 µM | NCI-H460 22.6 µM | OVCAR-4 21.9 µM | RPMI-8226 20.9 µM | SN12C 29.3 µM | UACC-257 18.7 µM | HT-29 31 µM

O=C(O)C(Cc1ccccc1)N1C(=O)N/C(=C\c2ccc(F)cc2)C1=O (stereo unspecified)
inactive: IGROV-1 > 100 µM | M14 > 100 µM | U-251 > 100 µM | SW-620 > 100 µM | HOP-62 > 100 µM | SF-295 > 100 µM | SK-MEL-2 > 100 µM | KM12 > 100 µM | NCI-H460 > 100 µM | OVCAR-4 > 100 µM | RXF 393 > 100 µM | RPMI-8226 > 100 µM | SN12C > 100 µM | UACC-257 > 100 µM | HT-29 > 100 µM

CS/C(=N\c1ccc([N+](=O)[O-])cc1C#N)NC(=O)c1ccccc1
inactive: IGROV-1 > 100 µM | M14 > 100 µM | SF-268 > 100 µM | U-251 > 100 µM | SW-620 > 100 µM | HOP-62 > 100 µM | SF-295 > 100 µM | KM12 > 100 µM | SNB-19 > 100 µM | NCI-H460 > 100 µM | OVCAR-4 > 100 µM | RXF 393 40.4 µM | RPMI-8226 > 100 µM | SN12C > 100 µM | UACC-257 > 100 µM | HT-29 > 100 µM

C1=C(c2ccccc2)C(OC2Oc3ccccc3C=C2c2ccccc2)Oc2ccccc21 (stereo unspecified)
inactive: IGROV-1 > 100 µM | M14 > 100 µM | SF-268 > 100 µM | U-251 15.5 µM | SW-620 31.3 µM | HOP-62 > 100 µM | SF-295 > 100 µM | SK-MEL-2 > 100 µM | KM12 > 100 µM | SNB-19 > 100 µM | NCI-H460 > 100 µM | RXF 393 > 100 µM | RPMI-8226 33.6 µM | SN12C > 100 µM | UACC-257 > 100 µM | HT-29 > 100 µM

NNc1cnn(-c2ccccc2)c(=O)c1Cl
inactive: IGROV-1 > 100 µM | M14 > 100 µM | SF-268 > 100 µM | U-251 > 100 µM | SW-620 > 100 µM | HOP-62 > 100 µM | SF-295 > 100 µM | SK-MEL-2 > 100 µM | KM12 > 100 µM | NCI-H460 > 100 µM | OVCAR-4 > 100 µM | RXF 393 > 100 µM | RPMI-8226 > 100 µM | SN12C > 100 µM | UACC-257 > 100 µM | HT-29 > 100 µM

Fc1ccc(F)c(C2SCc3nc4ccccc4n32)c1 (stereo unspecified)
inactive: IGROV-1 > 100 µM | M14 72.1 µM | SF-268 66.4 µM | U-251 > 100 µM | SW-620 > 100 µM | HOP-62 > 100 µM | SF-295 29.5 µM | KM12 72.6 µM | SNB-19 > 100 µM | NCI-H460 83 µM | OVCAR-4 95.7 µM | RXF 393 67.6 µM | RPMI-8226 40 µM | SN12C > 100 µM | UACC-257 41.4 µM | HT-29 86.3 µM

CC(C)C1CC(O)O[C@@H]([C@@H](C)[C@H]2CC(=O)[C@@H]3[C@@H]4[C@@H](O)[C@H](O)[C@H]5[C@@H](O)[C@H](O)CC[C@]5(C)[C@H]4CC[C@]23C)C1 (stereo partly specified)
inactive: IGROV-1 24.5 µM | M14 91.6 µM | SF-268 39.9 µM | U-251 63 µM | SW-620 > 100 µM | HOP-62 21.2 µM | SF-295 47.8 µM | SK-MEL-2 53.6 µM | KM12 28.6 µM | SNB-19 37.8 µM | NCI-H460 > 100 µM | OVCAR-4 > 100 µM | RXF 393 13.3 µM | SN12C 28.7 µM | UACC-257 5.06 µM | HT-29 > 100 µM

O=C(Nc1ccc(Cl)cc1Cl)C1C(=O)N(c2ccc(Cl)cc2Cl)C(=O)/C1=N\Nc1ccc([N+](=O)[O-])cc1[N+](=O)[O-] (stereo unspecified)
inactive: IGROV-1 83 µM | M14 52 µM | SF-268 22.3 µM | U-251 48.8 µM | SW-620 > 100 µM | HOP-62 45.8 µM | SF-295 45.3 µM | SK-MEL-2 42.9 µM | KM12 34.5 µM | SNB-19 39.1 µM | NCI-H460 59.8 µM | OVCAR-4 43.5 µM | RPMI-8226 22.7 µM | SN12C 74.6 µM | UACC-257 29.4 µM | HT-29 35.8 µM

O=C(Nc1ccc(Cl)cc1Cl)C1C(=O)C(=O)N(c2ccc(Cl)cc2Cl)C1=O (stereo unspecified)
inactive: IGROV-1 > 100 µM | M14 > 100 µM | SF-268 > 100 µM | U-251 > 100 µM | SW-620 > 100 µM | HOP-62 > 100 µM | KM12 > 100 µM | SNB-19 > 100 µM | NCI-H460 > 100 µM | OVCAR-4 > 100 µM | RXF 393 37.8 µM | SN12C > 100 µM | UACC-257 > 100 µM | HT-29 > 100 µM

COC(=O)C1C2C=CC(C2)N1[C@@H](C)c1ccccc1 (stereo partly specified)
inactive: IGROV-1 > 100 µM | M14 > 100 µM | SF-268 > 100 µM | U-251 > 100 µM | SW-620 > 100 µM | HOP-62 > 100 µM | SF-295 > 100 µM | SK-MEL-2 > 100 µM | KM12 > 100 µM | SNB-19 > 100 µM | NCI-H460 > 100 µM | RPMI-8226 > 100 µM | SN12C > 100 µM | UACC-257 > 100 µM | HT-29 > 100 µM

COc1cc(OC)c2ssc3c(OC)cc(OC)c4ssc1c2-c43
inactive: IGROV-1 > 100 µM | M14 > 100 µM | SF-268 > 100 µM | U-251 > 100 µM | SW-620 > 100 µM | HOP-62 > 100 µM | SF-295 > 100 µM | SK-MEL-2 > 100 µM | KM12 > 100 µM | SNB-19 > 100 µM | NCI-H460 > 100 µM | OVCAR-4 > 100 µM | RXF 393 > 100 µM | SN12C > 100 µM | UACC-257 > 100 µM | HT-29 > 100 µM

N#C/C(=C1\SC(/N=N/c2ccccc2)C(=O)N1c1ccccc1)c1nc2ccccc2[nH]1 (stereo unspecified)
inactive: IGROV-1 20.5 µM | M14 78.2 µM | SF-268 > 100 µM | U-251 54.2 µM | SW-620 > 100 µM | HOP-62 23.4 µM | SF-295 61.2 µM | SK-MEL-2 68.5 µM | SNB-19 > 100 µM | NCI-H460 36.1 µM | OVCAR-4 66.7 µM | RXF 393 28.6 µM | SN12C > 100 µM | UACC-257 78.2 µM | HT-29 > 100 µM

Source: ChEMBL document CHEMBL1201862, “PubChem BioAssay data set” (2004)
